Measurements reported in publication PMC5869189 (Frontiers in Immunology, 2018).

tested on: PBMC from healthy, seropositive donors; format: cell-based, human

In order of rising “% Responders” value:
1. GAGIGALAGGGKGAAIGAGV [BPSL0999_P5]  80.9%
2. CMDPATRAGNVRPAFIEALG [BPSS1525_P14]  82.1%
3. IRLRADTLMGAELAARPEYR [BPSS1525_P19]  82.1%
4. ITNYFTGLQTVANNAADPSA [BPSL0280_P12]  82.8%
5. ELERQGFQNFQPKRLDDLLP [BPSS1599_P16]  83.3%
6. GRQVYEATLCAIFSEAKDRF [BPSS1525_P12]  84.6%
7. IVEFAKLAKQFEERDAVLLG [BPSL2096_P7]  85.3%
8. LEGAFYNGRRQPAPNWLGAF [BPSS1599_P9]  85.4%
9. LFDFDKAVLKPAGKQKLDEL [BPSL2522_P11]  85.7%
10. DPLPPAMLYHELVGLLGRLS [BPSS0530_P27]  86.0%
11. KLVDLQLPGARLNALPNPPR [BPSS0530_P39]  86.0%
12. CIGKIVGWVITAVSFAAAAF [BPSS1532_P35]  87.1%
13. ASPTWRAYRLNANLGGIAPP [BPSS1599_P39]  87.5%
14. GGWNVVIGEPELERQGFQNF [BPSS1599_P15]  87.5%
15. RVRAELAARQARSGPVAPPW [BPSS1599_P24]  87.5%
16. FTVVAAKPGFNNHEENGQSA [BPSL2096_P2]  88.2%
17. RMRLANLDAFDPLPPAMLYH [BPSS0530_P26]  88.4%
18. DRELGYDHDDLQTSFEPLAM [BPSS0530_P30]  88.4%
19. SAQSVPASRQAVNDNWVNGT [BPSL2522_P3]  88.6%
20. DAAAKLERLLPEQGPRAPLA [BPSS1599_P36]  89.6%
21. SLSRRNELRAEAVELAKKLK [BPSS1599_P3]  89.6%
22. NLAQQAAALPASPTWRAYRL [BPSS1599_P38]  89.6%
23. VRPAFIEALGDAARATGLPG [BPSS1525_P15]  89.7%
24. RLGLRHARGVFQDGTAFSLP [BPSS0530_P7]  90.7%
25. SDDPLPPPLETELAQAGDIA [BPSS0530_P9]  90.7%
26. RFIPPLLDTRAHLVLRSLID [BPSS0530_P20]  90.7%
27. NNHEENGQSAFETVTEASFP [BPSL2096_P3]  91.2%
28. MSAAAQDRSIGAAQMTAAIA [BPSS1531_P20]  91.4%
29. ELCWRDAFWTPATANAKCDG [BPSL2522_P6]  91.4%
30. AELAARPEYRELQPYARQQA [BPSS1525_P20]  92.3%
31. MSSLPVGPVAWSDGMLIETQ [BPSS0530_P1]  93.0%
32. SNHGWGFTLLDLDQDGLGLG [BPSS0530_P5]  93.0%
33. DNATEAGRAQNRRVEIYLRA [BPSL0999_P20]  93.6%
34. NRRVEIYLRAPQAAQ [BPSL0999_P21]  93.6%
35. RDGFAPGHLSLGAMVSRAIA [BPSS1599_P7]  95.8%
36. WWALRPVERRLSPRAALIAA [BPSS1599_P19]  95.8%
37. KGELIDQLGVRDKEAGVALR [BPSL2096_P12]  97.1%
38. IGSDKYNDRLSLRRAQAVKS [BPSL2522_P15]  97.1%
39. CLALQAARTGGPEMAFGDVE [BPSS0530_P11]  97.7%
40. VGYTDSTGSAAHNQTLSQNR [BPSL0999_P15]  97.9%
41. TAACVVLGGAFAYWHHRAKV [BPSS1599_P21]  100.0%
42. KQTLAGSAMALRIVGDFPDL [BPSS0530_P43]  100.0%

In order of rising “Median SFC/10^6 PBMCs (IFN-g)” value:
1. RVRAELAARQARSGPVAPPW [BPSS1599_P24]  119
2. NLAQQAAALPASPTWRAYRL [BPSS1599_P38]  125
3. LEGAFYNGRRQPAPNWLGAF [BPSS1599_P9]  126
4. RDGFAPGHLSLGAMVSRAIA [BPSS1599_P7]  132
5. ELERQGFQNFQPKRLDDLLP [BPSS1599_P16]  142
6. DAAAKLERLLPEQGPRAPLA [BPSS1599_P36]  143
7. ASPTWRAYRLNANLGGIAPP [BPSS1599_P39]  143
8. SLSRRNELRAEAVELAKKLK [BPSS1599_P3]  156
9. WWALRPVERRLSPRAALIAA [BPSS1599_P19]  169
10. TAACVVLGGAFAYWHHRAKV [BPSS1599_P21]  170
11. CIGKIVGWVITAVSFAAAAF [BPSS1532_P35]  172
12. GGWNVVIGEPELERQGFQNF [BPSS1599_P15]  179
13. IRLRADTLMGAELAARPEYR [BPSS1525_P19]  197
14. CMDPATRAGNVRPAFIEALG [BPSS1525_P14]  200
15. GRQVYEATLCAIFSEAKDRF [BPSS1525_P12]  201
16. RLGLRHARGVFQDGTAFSLP [BPSS0530_P7]  211
17. AELAARPEYRELQPYARQQA [BPSS1525_P20]  216
18. VRPAFIEALGDAARATGLPG [BPSS1525_P15]  220
19. KLVDLQLPGARLNALPNPPR [BPSS0530_P39]  221
20. SNHGWGFTLLDLDQDGLGLG [BPSS0530_P5]  224
21. MSAAAQDRSIGAAQMTAAIA [BPSS1531_P20]  225
22. DPLPPAMLYHELVGLLGRLS [BPSS0530_P27]  239
23. RMRLANLDAFDPLPPAMLYH [BPSS0530_P26]  240
24. RFIPPLLDTRAHLVLRSLID [BPSS0530_P20]  248
25. CLALQAARTGGPEMAFGDVE [BPSS0530_P11]  256
26. MSSLPVGPVAWSDGMLIETQ [BPSS0530_P1]  258
27. SAQSVPASRQAVNDNWVNGT [BPSL2522_P3]  267
28. SDDPLPPPLETELAQAGDIA [BPSS0530_P9]  283
29. IGSDKYNDRLSLRRAQAVKS [BPSL2522_P15]  290
30. ELCWRDAFWTPATANAKCDG [BPSL2522_P6]  291
31. KQTLAGSAMALRIVGDFPDL [BPSS0530_P43]  299
32. IVEFAKLAKQFEERDAVLLG [BPSL2096_P7]  304
33. NNHEENGQSAFETVTEASFP [BPSL2096_P3]  308
34. DRELGYDHDDLQTSFEPLAM [BPSS0530_P30]  310
35. KGELIDQLGVRDKEAGVALR [BPSL2096_P12]  317
36. FTVVAAKPGFNNHEENGQSA [BPSL2096_P2]  323
37. GAGIGALAGGGKGAAIGAGV [BPSL0999_P5]  346
38. NRRVEIYLRAPQAAQ [BPSL0999_P21]  348
39. DNATEAGRAQNRRVEIYLRA [BPSL0999_P20]  353
40. VGYTDSTGSAAHNQTLSQNR [BPSL0999_P15]  367
41. LFDFDKAVLKPAGKQKLDEL [BPSL2522_P11]  408
42. ITNYFTGLQTVANNAADPSA [BPSL0280_P12]  557
